Measured values as given in patent US20050176655A1, “Novel macrolide derivatives havaing effect of potentiating antifungal activity” (priority 2002, published 2005).

Key:
Experiment in all cases: Paper disk method, enhancing action for activities of azole antifungal agents
Format in all cases: cell-based
[1] = test system: Candida albicans ATCC 64548; details: 24 hours; for Inhibition activity (inhibition ring mm) C. albicans ATCC 64548 GYM / Transparency of the inhibition ring C. albicans ATCC 64548 GYM: miconazole 0.03 μg/ml; for Inhibition activity (inhibition ring mm) C. albicans ATCC 64548 GYF / Transparency of the inhibition ring C. albicans ATCC 64548 GYF: fluconazole 0.5 μg/ml
Method in brief: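 GY agar (pH 6.0) seeded with C. albicans ATCC 64548 precultured in Waksman broth at 27° C for 40 hours, supplemented with sub-growth-inhibitory miconazole 0.03 μg/ml or fluconazole 0.5 μg/ml. Paper disk method; inhibition-zone diameter (mm) read after 24 hours, transparency graded A–E.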

[2] = test system: fluconazole resistant Candida albicans ATCC 64550; details: 24 hours; for Inhibition activity (inhibition ring mm) C. albicans ATCC 64550 GYF / Transparency of the inhibition ring C. albicans ATCC 64550 GYF: fluconazole 30 μg/ml; for Inhibition activity (inhibition ring mm) C. albicans ATCC 64550 GYM / Transparency of the inhibition ring C. albicans ATCC 64550 GYM: miconazole 0.15 μg/ml
Method in brief: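 Paper disk assay on GY agar (pH 6.0) seeded with Waksman-broth-grown C. albicans ATCC 64550 (0.1% inoculum). Medium was supplemented with sub-growth-inhibitory miconazole 0.15 μg/ml or fluconazole 30 μg/ml. After 24 h, inhibition-zone diameter was measured in mm and transparency graded A–E (A most transparent, E opaque).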

[3] = test system: Aspergillus niger ATCC 6275; details: 48 hours; for Inhibition activity (inhibition ring mm) A. niger ATCC 6275 GYF / Transparency of the inhibition ring A. niger ATCC 6275 GYF: fluconazole 10 μg/ml; for Inhibition activity (inhibition ring mm) A. niger ATCC 6275 GYM / Transparency of the inhibition ring A. niger ATCC 6275 GYM: miconazole 0.1 μg/ml; for Inhibition activity (inhibition ring mm) A. niger ATCC 6275 GY / Transparency of the inhibition ring A. niger ATCC 6275 GY: GY medium (control, no azole)
Method in brief: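 Paper-disk assay on A. niger ATCC 6275 spores (0.2%) seeded on GY agar pH 6.0. After 48 h, inhibition-zone diameter recorded in mm and transparency graded A (transparent) to E (opaque).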

Structure (SMILES): CCC(OC(=O)c1ccccc1)C(C)(O)C1OC(=O)C(C)C(OC2CC(C)(OC)C(OC(=O)c3ccccc3)C(C)O2)C(C)C(OC2OC(C)CC(N(C)C)C2OC(C)=O)C2(C)CC(C)=C(O2)C1C (centres unmarked) [Compound 773, 2′-O-acetyl-4″,13-Di-O-benzoyl-8,9-Anhydro-pseudoerythromycin A 6,9-hemiketal]
- Inhibition activity (inhibition ring mm) C. albicans ATCC 64548 GYM ([1]; 10 μg/8 mm disk): 13 mm
- Transparency of the inhibition ring C. albicans ATCC 64548 GYM ([1]; 10 μg/8 mm disk): C (Growth of test organism was inhibited 55% or more and 75% or less.)
- Inhibition activity (inhibition ring mm) C. albicans ATCC 64548 GYF ([1]; 50 μg/8 mm disk): 12 mm
- Transparency of the inhibition ring C. albicans ATCC 64548 GYF ([1]; 50 μg/8 mm disk): E (Growth of test organism was inhibited 35% or less.)
- Inhibition activity (inhibition ring mm) C. albicans ATCC 64548 GYM ([1]; 50 μg/8 mm disk): 16 mm
- Transparency of the inhibition ring C. albicans ATCC 64548 GYM ([1]; 50 μg/8 mm disk): A (Growth of test organism was inhibited 95% or more.)
- Inhibition activity (inhibition ring mm) C. albicans ATCC 64550 GYF ([2]; 10 μg/8 mm disk): 11 mm
- Transparency of the inhibition ring C. albicans ATCC 64550 GYF ([2]; 10 μg/8 mm disk): E (Growth of test organism was inhibited 35% or less.)
- Inhibition activity (inhibition ring mm) C. albicans ATCC 64550 GYM ([2]; 10 μg/8 mm disk): 10 mm
- Transparency of the inhibition ring C. albicans ATCC 64550 GYM ([2]; 10 μg/8 mm disk): C (Growth of test organism was inhibited 55% or more and 75% or less.)
- Inhibition activity (inhibition ring mm) C. albicans ATCC 64550 GYF ([2]; 50 μg/8 mm disk): 15 mm
- Transparency of the inhibition ring C. albicans ATCC 64550 GYF ([2]; 50 μg/8 mm disk): A (Growth of test organism was inhibited 95% or more.)
- Inhibition activity (inhibition ring mm) C. albicans ATCC 64550 GYM ([2]; 50 μg/8 mm disk): 14 mm
- Transparency of the inhibition ring C. albicans ATCC 64550 GYM ([2]; 50 μg/8 mm disk): A (Growth of test organism was inhibited 95% or more.)
- Inhibition activity (inhibition ring mm) A. niger ATCC 6275 GYF ([3]; 10 μg/8 mm disk): 10 mm
- Transparency of the inhibition ring A. niger ATCC 6275 GYF ([3]; 10 μg/8 mm disk): E (Growth of test organism was inhibited 35% or less.)
- Inhibition activity (inhibition ring mm) A. niger ATCC 6275 GYM ([3]; 10 μg/8 mm disk): 13 mm
- Transparency of the inhibition ring A. niger ATCC 6275 GYM ([3]; 10 μg/8 mm disk): E (Growth of test organism was inhibited 35% or less.)
- Inhibition activity (inhibition ring mm) A. niger ATCC 6275 GYF ([3]; 50 μg/8 mm disk): 15 mm
- Transparency of the inhibition ring A. niger ATCC 6275 GYF ([3]; 50 μg/8 mm disk): E (Growth of test organism was inhibited 35% or less.)
- Inhibition activity (inhibition ring mm) A. niger ATCC 6275 GYM ([3]; 50 μg/8 mm disk): 15 mm
- Transparency of the inhibition ring A. niger ATCC 6275 GYM ([3]; 50 μg/8 mm disk): B (Growth of test organism was inhibited 75% of more and 95% or less.)

Structure (SMILES): CCCCCC(=O)OC1C(C)OC(OC2C(C)C(=O)OC(C(C)(O)C(CC)OC(=O)CCCCC)C(C)C3=C(C)CC(C)(O3)C(OC3OC(C)CC(N(C)C)C3OC(C)=O)C2C)CC1(C)OC (centres unmarked) [Compound 772, 2′-O-acetyl-4″,13-Di-O-hexanoyl-8,9-Anhydro-pseudoerythromycin A 6,9-hemiketal]
- Inhibition activity (inhibition ring mm) C. albicans ATCC 64548 GYF ([1]; 10 μg/8 mm disk): 9 mm
- Transparency of the inhibition ring C. albicans ATCC 64548 GYF ([1]; 10 μg/8 mm disk): D (Growth of test organism was inhibited 35% or more and 55% or less.)
- Inhibition activity (inhibition ring mm) C. albicans ATCC 64548 GYM ([1]; 10 μg/8 mm disk): 14 mm
- Transparency of the inhibition ring C. albicans ATCC 64548 GYM ([1]; 10 μg/8 mm disk): B (Growth of test organism was inhibited 75% of more and 95% or less.)
- Inhibition activity (inhibition ring mm) C. albicans ATCC 64548 GYF ([1]; 50 μg/8 mm disk): 10 mm
- Transparency of the inhibition ring C. albicans ATCC 64548 GYF ([1]; 50 μg/8 mm disk): D (Growth of test organism was inhibited 35% or more and 55% or less.)
- Inhibition activity (inhibition ring mm) C. albicans ATCC 64548 GYM ([1]; 50 μg/8 mm disk): 12 mm
- Transparency of the inhibition ring C. albicans ATCC 64548 GYM ([1]; 50 μg/8 mm disk): B (Growth of test organism was inhibited 75% of more and 95% or less.)
- Inhibition activity (inhibition ring mm) C. albicans ATCC 64550 GYF ([2]; 10 μg/8 mm disk): 11 mm
- Transparency of the inhibition ring C. albicans ATCC 64550 GYF ([2]; 10 μg/8 mm disk): E (Growth of test organism was inhibited 35% or less.)
- Inhibition activity (inhibition ring mm) C. albicans ATCC 64550 GYF ([2]; 50 μg/8 mm disk): 14 mm
- Transparency of the inhibition ring C. albicans ATCC 64550 GYF ([2]; 50 μg/8 mm disk): B (Growth of test organism was inhibited 75% of more and 95% or less.)
- Inhibition activity (inhibition ring mm) C. albicans ATCC 64550 GYM ([2]; 50 μg/8 mm disk): 12 mm
- Transparency of the inhibition ring C. albicans ATCC 64550 GYM ([2]; 50 μg/8 mm disk): A (Growth of test organism was inhibited 95% or more.)
- Inhibition activity (inhibition ring mm) A. niger ATCC 6275 GYF ([3]; 10 μg/8 mm disk): 10 mm
- Transparency of the inhibition ring A. niger ATCC 6275 GYF ([3]; 10 μg/8 mm disk): D (Growth of test organism was inhibited 35% or more and 55% or less.)
- Inhibition activity (inhibition ring mm) A. niger ATCC 6275 GYM ([3]; 10 μg/8 mm disk): 12 mm
- Transparency of the inhibition ring A. niger ATCC 6275 GYM ([3]; 10 μg/8 mm disk): E (Growth of test organism was inhibited 35% or less.)
- Inhibition activity (inhibition ring mm) A. niger ATCC 6275 GY ([3]; 50 μg/8 mm disk): 12 mm
- Transparency of the inhibition ring A. niger ATCC 6275 GY ([3]; 50 μg/8 mm disk): E (Growth of test organism was inhibited 35% or less.)
- Inhibition activity (inhibition ring mm) A. niger ATCC 6275 GYF ([3]; 50 μg/8 mm disk): 10 mm
- Transparency of the inhibition ring A. niger ATCC 6275 GYF ([3]; 50 μg/8 mm disk): D (Growth of test organism was inhibited 35% or more and 55% or less.)
- Inhibition activity (inhibition ring mm) A. niger ATCC 6275 GYM ([3]; 50 μg/8 mm disk): 13 mm
- Transparency of the inhibition ring A. niger ATCC 6275 GYM ([3]; 50 μg/8 mm disk): A (Growth of test organism was inhibited 95% or more.)

Structure (SMILES): CCC(OC(C)=O)C(C)(O)C1OC(=O)C(C)C(OC2CC(C)(OC)C(OC(C)=O)C(C)O2)C(C)C(OC2OC(C)CC(NC)C2O)C2(C)CC(C)=C(O2)C1C (centres unmarked) [Compound 756, 4″,13-Di-O-acetyl-de (3′-N-methyl)-8,9-Anhydro-pseudoerythromycin A 6,9-hemiketal]
- Inhibition activity (inhibition ring mm) C. albicans ATCC 64548 GYM ([1]; 100 μg/8 mm disk): 15 mm
- Transparency of the inhibition ring C. albicans ATCC 64548 GYM ([1]; 100 μg/8 mm disk): D (Growth of test organism was inhibited 35% or more and 55% or less.)
- Inhibition activity (inhibition ring mm) C. albicans ATCC 64550 GYM ([2]; 100 μg/8 mm disk): 10 mm
- Transparency of the inhibition ring C. albicans ATCC 64550 GYM ([2]; 100 μg/8 mm disk): E (Growth of test organism was inhibited 35% or less.)
- Inhibition activity (inhibition ring mm) A. niger ATCC 6275 GY ([3]; 50 μg/8 mm disk): 10 mm
- Transparency of the inhibition ring A. niger ATCC 6275 GY ([3]; 50 μg/8 mm disk): E (Growth of test organism was inhibited 35% or less.)
- Inhibition activity (inhibition ring mm) A. niger ATCC 6275 GYF ([3]; 50 μg/8 mm disk): 14 mm
- Transparency of the inhibition ring A. niger ATCC 6275 GYF ([3]; 50 μg/8 mm disk): E (Growth of test organism was inhibited 35% or less.)
- Inhibition activity (inhibition ring mm) A. niger ATCC 6275 GYM ([3]; 50 μg/8 mm disk): 14 mm
- Transparency of the inhibition ring A. niger ATCC 6275 GYM ([3]; 50 μg/8 mm disk): E (Growth of test organism was inhibited 35% or less.)
